Results: paper PMC6945062, “Aβ43‐producing PS1 FAD mutants cause altered substrate interactions and respond to γ‐secretase modulation” (EMBO Reports, 2019)
≈ marks a conversion by molar mass, not a printed value.

How the values were obtained:
[1] = system: PS1 WT or FAD mutant γ‐secretase; assay: ELISA of Aβ species in conditioned media of HEK293/sw cells overexpressing WT or mutant PS1; type: cell-based, human
Method: For GSM treatments, the cells were grown to a confluence of 70–80%. Thereafter, medium was changed to fresh medium containing either DMSO vehicle control or GSM at the indicated concentration and the cells were incubated for 16–18 h before Aβ analysis of conditioned medium. […] Mouse N2a cells stably overexpressing swAPP were cultured in DMEM (high glucose) supplemented with 10% FCS and 1 mM sodium pyruvate and treated with GSM as described above.
(§1) Immunoblot analysis of PS1 and PS2, NCT, full‐length APP, C‐terminal APP fragments, secreted APPs, and Aβ was performed as described 52. To analyze GSM dose responses and determine IC50 values for Aβ42 inhibition, secreted Aβ species of HEK293/sw cells were analyzed by sandwich immunoassay (MSD) using SULFO‐tagged C‐terminal specific antibodies to Aβ38, Aβ40, and Aβ42 as described before 26 or, in case of H4/sw and N2a/sw cells by an Aβ42 AlphaLISA immunoassay kit according to the instructions of the supplier (PerkinElmer). Notch1 cleavage reporter assay was carried out as described 51. GSM‐mediated changes of secreted Aβ species in conditioned medium of PS1 WT or mutant expressing HEK293/sw cells were quantified by ELISA using end‐specific C‐terminal antibodies to Aβ38, Aβ40, Aβ42, and Aβ43 obtained from IBL as described previously 16. Mass spectrometry analysis of secreted Aβ species was performed after immunoprecipitation using antibody 4G8 as described previously 17. Individual Aβ species were analyzed by immunoblotting, using Tris–Bicine urea SDS–PAGE 53. To improve the separation of longer Aβ species (e.g., Aβ42/43), the separation gel was adjusted to 8% acrylamide and 8 M urea. Aβ37 and Aβ38 generated in cell‐free γ‐secretase assays were analyzed by sandwich immunoassay (MSD) as above using SULFO‐tagged species‐specific antibodies. AICD generation in these assays was analyzed by immunoblotting with Penta‐His antibody after sample separation on 10–20% Tris–Tricine gels (Invitrogen). Protein bands from immunoblots were quantified using the LAS‐4000 image reader (Fujifilm Life Science) and Multi‐Gauge V3.0 software for analysis.

C99 V44Bpa [2] = assay: photocrosslinking of C99 V44Bpa to PS1 NTF, immunoblot quantitation; settings: box plot median, n = 7–11 biological replicates, read off a plot
C99 V44Bpa [3] = assay: photocrosslinking of C99 V44Bpa to full-length PS1, immunoblot quantitation; settings: box plot median, n = 7–11 biological replicates, read off a plot
Notch1 cleavage = assay: HEK293 cell‐based Notch1 luciferase reporter assay; settings: Homo sapiens; HEK293‐based Notch1 luciferase reporter cell line; n = 2
Method: (§2) Single‐cell clones of HEK293 cells stably co‐expressing swAPP with WT and mutant PS1 constructs were cultured as described 50. For GSM treatments, the cells were grown to a confluence of 70–80%. Thereafter, medium was changed to fresh medium containing either DMSO vehicle control or GSM at the indicated concentration and the cells were incubated for 16–18 h before Aβ analysis of conditioned medium. Single‐cell clones of H4 overexpressing swAPP and HEK293‐based Notch1 reporter cell lines were cultured and treated with GSM as described 51. […]
(§3) Immunoblot analysis of PS1 and PS2, NCT, full‐length APP, C‐terminal APP fragments, secreted APPs, and Aβ was performed as described 52. To analyze GSM dose responses and determine IC50 values for Aβ42 inhibition, secreted Aβ species of HEK293/sw cells were analyzed by sandwich immunoassay (MSD) using SULFO‐tagged C‐terminal specific antibodies to Aβ38, Aβ40, and Aβ42 as described before 26 or, in case of H4/sw and N2a/sw cells by an Aβ42 AlphaLISA immunoassay kit according to the instructions of the supplier (PerkinElmer). […] GSM‐mediated changes of secreted Aβ species in conditioned medium of PS1 WT or mutant expressing HEK293/sw cells were quantified by ELISA using end‐specific C‐terminal antibodies to Aβ38, Aβ40, Aβ42, and Aβ43 obtained from IBL as described previously 16. […]

[4] = system: γ‐secretase (total Aβ secretion in HEK293/sw cells); assay: Immunoblot analysis of total Aβ in conditioned media of HEK293/sw cells; type: cell-based, human
Method: as §2, §3

[5] = system: PS1 WT or FAD mutant γ‐secretase; assay: Mass spectrometry analysis of Aβ species from HEK293/sw cells overexpressing WT or mutant PS1; type: cell-based, human; settings: all mutants, 500 nM
Method: as §2, §3

[6] = system: C99–PS1 interaction (CHAPSO‐solubilized γ‐secretase); assay: C99 V44Bpa photocrosslinking to PS1 in CHAPSO lysates; type: binding, human
Method: Bpa‐containing C99‐based γ‐secretase substrates were prepared as described previously 22. CHAPSO‐lysates were prepared from HEK293/sw cells co‐expressing either PS1 WT or PS1 mutants. Photocrosslinking was performed as described before 22. Crosslinking of the substrates was analyzed by immunoblotting using antibodies against the PS1 NTF as described 22. For substrate crosslinking experiments in the presence of RO7019009, the cell lysates were pre‐incubated for 30 min on ice with RO7019009 or DMSO vehicle before the addition of C99 V44Bpa and subsequent photocrosslinking.

[7] = system: CHAPSO‐solubilized γ‐secretase; assay: Cell‐free γ‐secretase assay with recombinant C100‐His6 (AICD generation); type: biochemical, human; settings: 2.5 μM, WT and mutant PS1
Method: as §1, with “Mass spectrometry analysis of secreted Aβ species was performed after immunoprecipitation using antibody 4G8 as described previously 17.” left out, “To improve the separation of longer Aβ species (e.g., Aβ42/43), the separation gel was adjusted to 8% acrylamide and 8 M urea.” left out, “analysis. […]” for “analysis.”

Solubility = type: physicochemical
Text: Supplement EMBR-21-e47996-s003.docx, table 1: Table EV1. RO7019009 key physicochemical and pharmacokinetic properties predicting CNS drug-likeness | column: Solubility (µg/ml)

[8] = LogD (octanol-water distribution coefficient); type: physicochemical; settings: pH 7.4
Text: (§4) ^aLogD= logarithm of the octanol-water distribution coefficient at pH 7.4; ^bPAMPA: Parallel artificial membrane parallel assay; ^cCLmicr (h/m): human/mouse microsomal clearance

PAMPA permeability = type: in vitro ADME
Text: as §4

[9] = Human microsomal clearance; type: in vitro ADME; settings: human microsomes, read-out: CLmicr human microsomal clearance
Text: as §4

[10] = Mouse microsomal clearance; type: in vitro ADME; settings: mouse microsomes, read-out: CLmicr mouse microsomal clearance
Text: as §4

[11] = PS1 L166P mutant, HEK293/sw cells
[12] = PS1 R278I and L166P mutants, HEK293/sw cells
[13] = PS1 R278I mutant, HEK293/sw cells
[14] = RO7019009 50 nM, parent: est. 1.0
[15] = RO7019009 500 nM, parent: est. 0.90
[16] = RO7019009 2500 nM, parent: est. 0.49

| Compound | other: V44 CL efficiency (Rel. to DMSO-treated), median (C99 V44Bpa [2]; [14]) | other: V44 CL efficiency (Rel. to DMSO-treated), median (C99 V44Bpa [2]; [15]) | other: V44 CL efficiency (Rel. to DMSO-treated), median (C99 V44Bpa [2]; [16]) | other: V44 CL efficiency (Rel. to DMSO-treated), median (C99 V44Bpa [3]; RO7019009 50 nM) | other: V44 CL efficiency (Rel. to DMSO-treated), median (C99 V44Bpa [3]; RO7019009 500 nM) | other: V44 CL efficiency (Rel. to DMSO-treated), median (C99 V44Bpa [3]; RO7019009 2500 nM) | other results |
| --- | --- | --- | --- | --- | --- | --- | --- |
| COc1cc(Nc2cc(Cc3ccc(Cl)cc3)cc(C(C)(C)O)c2)ccc1-n1cnc(C)c1 [RO‐02] | – | – | – | – | – | – | Aβ43 production [1, 11]: only poorly, if at all; Aβ42 levels [1, 12]: remained unaffected; Aβ43 production [1, 13]: weakly reduced |
| presenilin 1 (PS1) WT (from UniProt P49768) L166P | 1 | 0.93 | 0.73 | – | – | – | – |
| presenilin 1 (PS1) WT (from UniProt P49768) R278I | – | – | – | 1 | 1 | 0.92 | – |
| Cc1nsc(N2C[C@H]3CC[C@@H](C2)[C@@H]3Nc2nc3c(-c4ccc(F)c(F)c4F)cccn3n2)n1 [RO7019009] | – | – | – | – | – | – | IC50 (Notch1 cleavage): > 10 µM; Aβ42 levels ([1]; PS1 L166P mutant, 50 to 500 nM): remained largely unaffected; Aβ42‐lowering response ([1]; PS1 V261F and R278I mutants, 50 to 500 nM): partially resistant; Aβ42 levels ([1]; V261F, R278I and L166P mutants, 500 nM): small, yet significant, reproducible reduction; generation of Aβ43 ([1]; all PS1 mutants, 50 to 500 nM): reduced the generation of Aβ43 for all mutants; total Aβ levels [4]: did not reduce; Aβ40 levels [5]: nearly complete reduction; crosslinking of C99 V44Bpa to PS1 ([6]; PS1 Y256S and R278I mutants): unchanged crosslinking; crosslinking of C99 V44Bpa to PS1 NTF ([6]; WT PS1, increasing concentrations): reduced; total AICD generation [7]: not or only marginally reduced; solubility (Solubility): 3 µg/mL (≈ 6.36 µM); logD [8]: 4; PAMPA (permeability) (PAMPA permeability): High; microsomal CLint [9]: < 10 µL/min/mg; microsomal CLint [10]: < 10 µL/min/mg |
| presenilin 1 (PS1) WT (from UniProt P49768) G382A | 0.93 | 0.87 | 0.67 | – | – | – | – |
| presenilin 1 (PS1) WT (from UniProt P49768) V261F | – | – | – | 0.95 | 0.65 | 0.62 | – |
| presenilin 1 (PS1) WT (from UniProt P49768) Y256S | 1.1 | 0.88 | 0.95 | – | – | – | – |
| CC(C)CC[C@H](c1ccc(Cl)cc1)N1CC[C@@H](CC(=O)O)C[C@H]1c1ccc(C(F)(F)F)cc1 [GSM‐1] | – | – | – | – | – | – | Aβ43 production [1, 11]: only poorly, if at all; Aβ42 levels [1, 12]: remained unaffected; Aβ43 production [1, 13]: weakly reduced |
| presenilin 1 (PS1) WT (from UniProt P49768) L435F | – | – | – | 1 | 0.78 | 0.6 | – |
| presenilin 1 (PS1) WT (from UniProt P49768) M292D | – | – | – | 1.1 | 0.92 | 0.65 | – |
